In US20250222120A1, “SYNTHESIS OF NOVEL SMALL MOLECULE CARM1 DEGRADERS, COMPOUNDS FORMED THEREBY, AND PHARMACEUTICAL COMPOSITIONS CONTAINING THEM” (Wisconsin Alumni Research Foundation, priority 2024, published 2025):
Peptide text beside a SMILES is read from it. * marks the point of attachment. Cbz = O=C(OCc1ccccc1)*

Assays:
CARM1 [1] = target: T1, CARM1 (Homo sapiens, UniProt Q86X55); test: CARM1 degradation by western blot in MCF7 cells; type: cell-based; set-up: Cell lysates were collected and the CARM1 levels were detected by western blots; endogenous in cells; host or cells: MCF7; settings: 24 h; for CARM1 degradation activity, alkyl-linker degraders: 0.5 and 1.0 μM; for CARM1 degradation activity: 0.5 μM
T1 sequence (Q86X55 1-608): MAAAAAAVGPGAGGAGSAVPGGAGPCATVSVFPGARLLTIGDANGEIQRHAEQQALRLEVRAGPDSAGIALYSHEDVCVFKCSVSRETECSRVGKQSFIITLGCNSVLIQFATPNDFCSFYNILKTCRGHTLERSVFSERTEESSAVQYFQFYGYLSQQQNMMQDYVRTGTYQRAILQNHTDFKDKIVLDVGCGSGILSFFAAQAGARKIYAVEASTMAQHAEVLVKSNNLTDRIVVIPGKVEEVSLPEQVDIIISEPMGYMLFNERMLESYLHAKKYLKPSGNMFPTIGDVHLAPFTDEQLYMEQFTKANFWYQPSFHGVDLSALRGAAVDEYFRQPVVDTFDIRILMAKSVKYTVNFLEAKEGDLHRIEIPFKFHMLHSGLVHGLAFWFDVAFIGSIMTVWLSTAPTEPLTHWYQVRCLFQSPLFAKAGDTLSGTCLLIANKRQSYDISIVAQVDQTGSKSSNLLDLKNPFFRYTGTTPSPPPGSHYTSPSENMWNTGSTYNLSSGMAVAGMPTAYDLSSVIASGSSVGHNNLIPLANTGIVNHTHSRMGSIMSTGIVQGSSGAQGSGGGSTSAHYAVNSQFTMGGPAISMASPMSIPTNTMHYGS
Method: Based on the structure of TPVC3, CARM1 degraders with stable and flexible alkyl linkages 2a-e were designed and synthesized. Degrader 2b bears the same linker length as TPVC3, while 2a has one less carbon. However, we also changed the hydrolytic labile C═N double bond, which is part of the acylhydrazone motif, in TPVC3 to a C—C bond in compound 2b. This change may influence the required optimal linker length. […] Western blot assays were performed to evaluate the CARM1 degradation activity of the compounds after treating MCF7 cells with these degraders at two concentrations (0.5 and 1.0 μM) for 24 h. […] It has one less carbon atom than 2a in terms of length. […] It has the same linker length as 2d.
The treatment dose and time were determined based on time-course and dose titration experiments (FIG. 4B-4C).
Western Blot Assay. Cells were harvested and washed with Dulbecco's phosphate-buffered saline (PBS), then lysed with 1×RIPA lysis buffer (50 mM Tris pH 7.5, 150 mM NaCl, 1% NP-40, 0.5% sodium deoxycholate, and 0.1% sodium dodecyl sulfate) supplemented with 1 mM phenylmethylsulfonyl fluoride, 10 μg/mL aprotinin, 1 μM leupeptin, and 10 μg/mL pepstatin on ice for 20 min. The supernatant was collected after spinning down at 15000 RPM at 4 degrees Celsius for 10 min. The concentration of whole lysates was quantified using a Bradford assay. 50-75 μg of cell lysates was boiled in 4× Laemmli Loading Dye and boiled at 100 degrees Celsius for 10 min. 25 μg were run in 8% SDS-PAGE gels and transferred to nitrocellulose membranes. Blots were blocked in 5% skim milk in PBST [PBS and 0.1% Tween 20] for 45 min, then incubated with primary antibodies at 4 degrees Celsius overnight. Blots were washed in PBST for 30 min, then incubated with horseradish peroxidase-linked secondary antibodies (Jackson ImmunoResearch) for 1 hr. Afterwards, blots were washed in PBST for 15-30 min, then treated with chemiluminescent ECL reagent and imaged with the ChemiDoc Imaging System (Bio-Rad) or Azure 600 (Azure Biosystems). Expression levels of the indicated proteins were probed by the following antibodies: anti-CARM1, anti-me-BAF155, anti-me-PABP1, anti-PABP1,^7 anti-BAF155 (D7F8S, Cell Signaling Technology), anti-PRMT1 (Bethyl), anti-PRMT6 (D-5, Santa Cruz Biotechnology), anti-β-Actin (ABclonal Technology, Sigma-Aldrich), anti-Hsp90 (H-114, Santa Cruz Biotechnology).

CARM1 [2] = target: T1, CARM1; test: CARM1 degradation by western blot in MCF7 cells; type: cell-based; set-up: Cell lysates were collected and the CARM1 levels were detected by western blots; endogenous in cells; host or cells: MCF7; settings: MCF7 cells, 0.5 μM 3b, 24 h; 7.5 μM MG132, 20 μM VH-032, 2 μM MLN4924, 10 μM TP-064

Effect of competitor/inhibitor on 3b-induced CARM1 degradation (CARM1 [2])	SMILES	CARM1 degradation activity, alkyl-linker degraders (CARM1 [1])	also measured
	CNCCN1CCC(c2cc(CN(C)C(=O)c3cccc(Oc4ccc(OCC(=O)NCCc5ccc(OCCCCC(=O)N[C@H](C(=O)N6C[C@H](O)C[C@H]6C(=O)N[C@@H](C)c6ccc(-c7scnc7C)cc6)C(C)(C)C)cc5)cc4)c3)ccn2)CC1 [Compound 2c, (2S,4R)-1-((S)-3,3-dimethyl-2-(5-(4-(2-(2-(4-(3-(methyl((2-(1-(2-(methylamino)ethyl)piperidin-4-yl)pyridin-4-yl)methyl)carbamoyl)phenoxy)phenoxy)acetamido)ethyl)phenoxy)pentanamido)butanoyl)-4-hydroxy-N—((S)-1-(4-(4-methylthiazol-5-yl)phenyl)ethyl)pyrrolidine-2-carboxamide]	2d and 2e showed stronger CARM1 degradation activities than 2a, 2b, and 2c	
	CNCCN1CCC(c2cc(CN(C)C(=O)c3cccc(Oc4ccc(C(=O)N5CCC(CN6CCC(CN7CCN(CC(=O)N[C@H](C(=O)N8C[C@H](O)C[C@H]8C(=O)N[C@@H](C)c8ccc(-c9scnc9C)cc8)C(C)(C)C)CC7)CC6)CC5)cc4)c3)ccn2)CC1 [Compound 3c, (2S,4R)-1-((S)-3,3-dimethyl-2-(2-(4-((1-((1-(4-(3-(methyl((2-(1-(2-(methylamino)ethyl)piperidin-4-yl)pyridin-4-yl)methyl)carbamoyl)phenoxy)benzoyl)piperidin-4-yl)methyl)piperidin-4-yl)methyl)piperazin-1-yl)acetamido)butanoyl)-4-hydroxy-N—((S)-1-(4-(4-methylthiazol-5-yl)phenyl)ethyl)pyrrolidine-2-carboxamide]		CARM1 degradation activity (CARM1 [1]): significantly lower CARM1 degradation activities
	CNCCN1CCC(c2cc(CN(C)C(=O)c3cccc(Oc4ccc(OCC(=O)NCc5ccc(OCCCC(=O)N[C@H](C(=O)N6C[C@H](O)C[C@H]6C(=O)N[C@@H](C)c6ccc(-c7scnc7C)cc6)C(C)(C)C)cc5)cc4)c3)ccn2)CC1 [Compound 2a, (2S,4R)-1-((S)-3,3-dimethyl-2-(4-(4-((2-(4-(3-(methyl((2-(1-(2-(methylamino)ethyl)piperidin-4-yl)pyridin-4-yl)methyl)carbamoyl)phenoxy)phenoxy)acetamido)methyl)phenoxy)butanamido)butanoyl)-4-hydroxy-N—((S)-1-(4-(4-methylthiazol-5-yl)phenyl)ethyl)pyrrolidine-2-carboxamide]	2d and 2e showed stronger CARM1 degradation activities than 2a, 2b, and 2c	
	CNCCN1CCC(c2cc(CN(C)C(=O)c3cccc(Oc4ccc(OCC(=O)NCCc5ccc(OCCCC(=O)N[C@H](C(=O)N6C[C@H](O)C[C@H]6C(=O)N[C@@H](C)c6ccc(-c7scnc7C)cc6)C(C)(C)C)cc5)cc4)c3)ccn2)CC1 [Compound 2b, (2S,4R)-1-((S)-3,3-dimethyl-2-(4-(4-(2-(2-(4-(3-(methyl((2-(1-(2-(methylamino)ethyl)piperidin-4-yl)pyridin-4-yl)methyl)carbamoyl)phenoxy)phenoxy)acetamido)ethyl)phenoxy)butanamido)butanoyl)-4-hydroxy-N—((S)-1-(4-(4-methylthiazol-5-yl)phenyl)ethyl)pyrrolidine-2-carboxamide]	2d and 2e showed stronger CARM1 degradation activities than 2a, 2b, and 2c	
	CNCCN1CCC(c2cc(CN(C)C(=O)c3cccc(Oc4ccc(OCC(=O)NCCc5ccc(OCCCCCC(=O)N[C@H](C(=O)N6C[C@H](O)C[C@H]6C(=O)N[C@@H](C)c6ccc(-c7scnc7C)cc6)C(C)(C)C)cc5)cc4)c3)ccn2)CC1 [Compound 2d, (2S,4R)-1-((S)-3,3-dimethyl-2-(6-(4-(2-(2-(4-(3-(methyl((2-(1-(2-(methylamino)ethyl)piperidin-4-yl)pyridin-4-yl)methyl)carbamoyl)phenoxy)phenoxy)acetamido)ethyl)phenoxy)hexanamido)butanoyl)-4-hydroxy-N—((S)-1-(4-(4-methylthiazol-5-yl)phenyl)ethyl)pyrrolidine-2-carboxamide]	stronger CARM1 degradation activities	
abrogated 3b-induced CARM1 degradation	NS(=O)(=O)OC[C@@H]1C[C@@H](n2ccc3c(N[C@H]4CCc5ccccc54)ncnc32)C[C@@H]1O [MLN492437, reference compound]		
abrogated 3b-induced CARM1 degradation	CC(=O)N[C@H](C(=O)N1C[C@H](O)C[C@H]1C(=O)NCc1ccc(-c2scnc2C)cc1)C(C)(C)C [VH-032, reference compound]		
	CNCCN1CCC(c2cc(CN(C)C(=O)c3cccc(Oc4ccc(OCC(=O)NCCc5ccc(OCCCCCCC(=O)N[C@H](C(=O)N6C[C@H](O)C[C@H]6C(=O)N[C@@H](C)c6ccc(-c7scnc7C)cc6)C(C)(C)C)cc5)cc4)c3)ccn2)CC1 [Compound 2e, (2S,4R)-1-((S)-3,3-dimethyl-2-(7-(4-(2-(2-(4-(3-(methyl((2-(1-(2-(methylamino)ethyl)piperidin-4-yl)pyridin-4-yl)methyl)carbamoyl)phenoxy)phenoxy)acetamido)ethyl)phenoxy)heptanamido)butanoyl)-4-hydroxy-N—((S)-1-(4-(4-methylthiazol-5-yl)phenyl)ethyl)pyrrolidine-2-carboxamide]	stronger CARM1 degradation activities	
	CNCCN1CCC(c2cc(CN(C)C(=O)c3cccc(Oc4ccc(CC(=O)N5CCC(CN6CCC(CN7CCN(CC(=O)N[C@H](C(=O)N8C[C@H](O)C[C@H]8C(=O)N[C@@H](C)c8ccc(-c9scnc9C)cc8)C(C)(C)C)CC7)CC6)CC5)cc4)c3)ccn2)CC1 [Compound 3d, (2S,4R)-1-((S)-3,3-dimethyl-2-(2-(4-((1-((1-(2-(4-(3-(methyl((2-(1-(2-(methylamino)ethyl)piperidin-4-yl)pyridin-4-yl)methyl)carbamoyl)phenoxy)phenyl)acetyl)piperidin-4-yl)methyl)piperidin-4-yl)methyl)piperazin-1-yl)acetamido)butanoyl)-4-hydroxy-N—((S)-1-(4-(4-methylthiazol-5-yl)phenyl)ethyl)pyrrolidine-2-carboxamide]		CARM1 degradation activity (CARM1 [1]): significantly lower CARM1 degradation activities

SMILES	Effect of competitor/inhibitor on 3b-induced CARM1 degradation (CARM1 [2])	CARM1 degradation activity, alkyl-linker degraders (CARM1 [1])	also measured
CC(C)C[C@@H](C=O)NC(=O)[C@H](CC(C)C)NC(=O)[C@H](CC(C)C)NC(=O)OCc1ccccc1 [MG132, reference compound] (Cbz-Leu-Leu-Leu-aldehyde)	abrogated 3b-induced CARM1 degradation		
